In PubChem BioAssay (NCI):
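Interpolation was linear, between the two tested concentrations surrounding the appropriate level; five concentrations were tested over 48 hours in 96-well plates. TGI: concentration producing complete growth inhibition.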

Tests used:
Test in all cases: NCI-60 cell line screen, 48 h
[1] = test system: SK-MEL-28 melanoma
[2] = test system: SNB-75 CNS
[3] = test system: T-47D breast
[4] = test system: MCF7 breast
[5] = test system: K-562 leukemia
[6] = test system: NCI/ADR-RES ovarian
[7] = test system: MDA-MB-231 breast
[8] = test system: SN12C renal
[9] = test system: HL-60(TB) leukemia
[10] = test system: A498 renal
[11] = test system: HCT-116 colon
[12] = test system: HOP-62 NSCLC
[13] = test system: TK-10 renal
[14] = test system: MDA-N
[15] = test system: COLO 205 colon
[16] = test system: OVCAR-8 ovarian
[17] = test system: HT29 colon
[18] = test system: SF-295 CNS
[19] = test system: SK-MEL-5 melanoma
[20] = test system: NCI-H460 lung
[21] = test system: MALME-3M melanoma
[22] = test system: OVCAR-3 ovarian
[23] = test system: HCC-2998 colon
[24] = test system: A549 NSCLC
[25] = test system: HS 578T breast
[26] = test system: UACC-257 melanoma
[27] = test system: ACHN renal
[28] = test system: SK-MEL-2 melanoma
[29] = test system: LOX IMVI melanoma
[30] = test system: U251 CNS
[31] = test system: M14 melanoma
[32] = test system: IGROV1 ovarian
[33] = test system: CCRF-CEM leukemia
[34] = test system: RPMI-8226 leukemia
[35] = test system: NCI-H226 lung
[36] = test system: MDA-MB-435
[37] = test system: OVCAR-5 ovarian
[38] = test system: SF-539 CNS
[39] = test system: NCI-H23 lung
[40] = test system: UACC-62 melanoma
[41] = test system: SNB-19 CNS
[42] = test system: SW-620 colon
[43] = test system: CAKI-1 renal
[44] = test system: NCI-H522 lung
[45] = test system: PC-3 prostate
[46] = test system: KM12 colon
[47] = test system: HCT-15 colon
[48] = test system: DU-145 prostate
[49] = test system: SR leukemia
[50] = test system: 786-0 renal
[51] = test system: EKVX NSCLC
[52] = test system: SK-OV-3 ovarian
[53] = test system: MOLT-4 leukemia
[54] = test system: OVCAR-4 ovarian
[55] = test system: RXF 393 renal
[56] = test system: HOP-92 NSCLC
[57] = test system: SF-268 CNS

COC1=CCC2=C(CCN(C(=O)C3CCC3)C2Cc2ccc(OC)c(O)c2)C1 (configuration not stated)
TGI [1]: > 100 µM | TGI [2]: 35.9 µM | TGI [3]: 62.4 µM | TGI [4]: 50.1 µM | TGI [5]: > 100 µM | TGI [6]: 41.4 µM | TGI [7]: > 100 µM | TGI [8]: 54.3 µM | TGI [9]: 51.5 µM | TGI [10]: 84.5 µM | TGI [11]: 48.6 µM | TGI [12]: > 100 µM | TGI [13]: 64.5 µM | TGI [14]: 9.04 µM | TGI [15]: 32.1 µM | TGI [16]: > 100 µM | TGI [17]: 43.8 µM | TGI [18]: 45.4 µM | TGI [19]: 73.3 µM | TGI [20]: 31.1 µM | TGI [21]: > 100 µM | TGI [22]: 27.4 µM | TGI [23]: 41.3 µM | TGI [24]: > 100 µM | TGI [25]: 66.6 µM | TGI [26]: > 100 µM | TGI [27]: > 100 µM | TGI [28]: > 100 µM | TGI [29]: > 100 µM | TGI [30]: > 100 µM | TGI [31]: 78.9 µM | TGI [32]: > 100 µM | TGI [33]: > 100 µM | TGI [34]: > 100 µM | TGI [35]: > 100 µM | TGI [36]: 10.5 µM | TGI [37]: 92 µM | TGI [38]: > 100 µM | TGI [39]: 28.7 µM | TGI [40]: > 100 µM | TGI [41]: > 100 µM | TGI [42]: > 100 µM | TGI [43]: > 100 µM | TGI [44]: 42 µM | TGI [45]: > 100 µM | TGI [46]: > 100 µM | TGI [47]: 25.1 µM | TGI [48]: 51.9 µM | TGI [49]: > 100 µM | TGI [50]: 47.4 µM | TGI [51]: 88.9 µM | TGI [52]: 83.5 µM | TGI [53]: > 100 µM | TGI [54]: > 100 µM | TGI [55]: 21.2 µM | TGI [56]: 79.4 µM | TGI [57]: > 100 µM
